Results reported in the pKa sets of Baltruschat and Czodrowski (2020).

SMILES | pKa
CCCCCCCCCC(=O)OC(CC(=O)O)C[N+](C)(C)C (stereo unspecified) | 3.65
CN(C)[C@@H]1C(O)=C(C(N)=O)C(=O)[C@@]2(O)C(O)=C3C(=O)c4c(O)cccc4[C@@](C)(O)C3[C@H](O)C12 (stereo partly specified) | 7.32
O=C(O)c1cccnc1 | 2.05
COc1ccc2c3c1O[C@H]1[C@@H](O)C=CC4[C@@H](C2)NCC[C@@]341 (stereo partly specified) | 9.23
CCCCCCCC(=O)OC(CC(=O)O)C[N+](C)(C)C (stereo unspecified) | 3.6
Nc1ccc(C(=O)O)cc1 | 4.87
CCCC(=O)OC(CC(=O)O)C[N+](C)(C)C (stereo unspecified) | 3.56

Remark: another data set of the same source

SMILES | pKa
Cc1ccc(C(=O)c2ccc(CC(=O)O)n2C)cc1 | 3.5
CCn1nc(C(=O)O)c(=O)c2cc3c(cc21)OCO3 | 4.7
O=C(c1ccccc1)c1ccc2n1CCC2C(=O)O (stereo unspecified) | 3.5
Cc1cccc(Nc2ccccc2C(=O)O)c1C | 4.5
